Data on one compound can be found in publication PMC7226045, “Ensartinib (X-396) Effectively Modulates Pharmacokinetic Resistance Mediated by ABCB1 and ABCG2 Drug Efflux Transporters and CYP3A4 Biotransformation Enzyme” (Cancers, 2020).

The target of data set [1] is T1, ABCB1 (Homo sapiens, UniProt P08183).
T1 construct: expressed in transfected cells; host or cells: MDCKII-ABCB1 (from Dr. Alfred Schinkel, The Netherlands Cancer Institute)
The data set is described as follows: daunorubicin accumulation assay (flow cytometry) in MDCKII-ABCB1 cells. In kind it is cell-based. The conditions noted are these: 2 µM daunorubicin, 1 h, read-out: IC50, inhibition of ABCB1 (daunorubicin accumulation). On the procedure: The flow-cytometric inhibitory assay with daunorubicin and mitoxantrone was performed with minor modifications as described previously. MDCKII-par, MDCKII-ABCB1, MDCKII-ABCG2, and MDCKII-ABCC1 cell lines were seeded at densities of 22.0 × 10^4, 15.0 × 10^4, 25.0 × 10^4, and 22.0 × 10^4 cells/well, respectively, on a 12-well plate and then incubated for 24 h to reach approximately 70–80% confluence. Further steps including cell washing, the preparation of drug/model inhibitor dilutions, and their addition to cells were performed as described above. After the 10 min pre-incubation period, 2 µM daunorubicin (a substrate of ABCB1/ABCC1) or 1 µM mitoxantrone (ABCG2 substrate) were promptly added to all wells other than those containing background samples, then the plate was incubated for 1 h under standard conditions. The plates were subsequently placed on ice, the cells were washed twice with ice-cold 1× PBS, and 10× trypsin without phenol red was added. After complete trypsinization, the cells were vigorously resuspended in ice-cold 1× PBS containing 2% FBS. Samples were then transferred into test-tubes and kept on ice until their fluorescence could be measured using a flow cytometer (BD FACSCanto II, Allschwil, Switzerland). The excitation/emission wavelengths for daunorubicin and mitoxantrone were 490/565 and 640/670 nm, respectively.
(In general: A flow cytometer gives signals particle by particle.)

Data set [2] deals with T2, ABCB1.
T2 construct: purchased Solvo Biotechnology SB MDR1/P-gp; host or cells: Sf9 cell membranes
The experiment in a line: ABCB1 ATPase assay (ABCB1-Sf9 membrane fraction). In kind it is biochemical. The settings on record: ABCB1-Sf9 membranes. The method, then: The ABCB1 ATPase assay was performed with minor modifications as described previously. The ATPase activitity was determined using ABCB1 […] ATPase Kit according to the manufacturer’s instructions. Sf9 cell membranes (4 µg protein per well) were mixed with various concentrations of ensartinib. The reaction mixture was then incubated for 10 min at 37 °C in the presence or absence of 1.2 mM sodium orthovanadate. The ATPase reactions were started by the addition of 10 mM ATP magnesium salt and stopped 10 min later. After 30 min incubation, absorbance was measured at 590 nm using the microplate reader (Infinite M200, Tecan, Salzburg, Austria). Phosphate standards were present in each plate; verapamil was used as positive control for ABCB1 stimulation.

A further data set deals with HL60-ABCB1 cells. The experiment in a line: XTT proliferation / drug combination assay, HL60-ABCB1. The settings on record: HL60-ABCB1. The method, then: (§1) The MTT method is not readily adapted for use with suspension cell cultures, therefore the XTT assay was used to assess the proliferation of HL60 cells. Briefly, HL60-par, HL60-ABCB1, HL60-ABCG2, and HL60-ABCC1 cells were seeded at 2 × 10^4 cells/well in 96-well culture plates. Immediately after seeding, dilutions of the tested drugs or drug combinations were added to the cells. The plates were then incubated under standard conditions (37 °C, 5% CO2) for 48 h, after which XTT solution in PBS (1 mg/mL) and phenazine methosulfate (7.50 µg/mL) were added to the cells and the plates were incubated for another 5 h. Finally, the cells’ absorbance was measured at 450 nm using a microplate reader (Infinite M200, Tecan, Salzburg, Austria). This method was used to assess the effect of ABC transporters on sensitivity to ensartinib and in drug combination assays.
(§2) Experiments focusing on the modulation of ABC transporter-mediated resistance were performed as described previously. The parent MDCKII and HL60 cells and their ABCB1-, ABCG2-, and ABCC1-overexpressing counterparts were seeded at the densities specified above onto 96-well culture plates and cultured for 24 h. The medium was subsequently replaced with serial dilutions of ensartinib alone or with various concentrations of a model MDR-susceptible cytostatic agent (daunorubicin or mitoxantrone) with or without 10 µM ensartinib. After 48 h incubation, the cells’ viability was determined as described above. In addition to performing IC50-shift analyses, the viability measurements were converted to FA (fraction of cells affected) values and the effects of drug combinations were quantified using the Chou-Talalay combination index (CI) method as implemented in CompuSyn 3.0.1 (ComboSyn Inc., Paramus, NJ, USA). The effects of concomitantly administered drugs were classified as synergistic (CI < 0.9), additive (0.9 < CI < 1.1), or antagonistic (CI > 1.1) based on the computed CI values.
For orientation: Tetrazolium dyes change colour on reduction, which living cells bring about.

Experiment in data set [3]: as above
The settings on record: human, HL60-ABCB1 cells. The method, then: as §1, §2

The test system of the next data set is A431-ABCC1 cells. The experiment in a line: MTT proliferation assay, A431-ABCC1. In kind it is cell-based. The conditions noted are these: Homo sapiens, 48 h, read-out: IC50, sensitivity to ensartinib. The method, then: MTT proliferation assay was performed as described previously.
The target in the next data set is CYP3A4 (Homo sapiens, UniProt P08684). The data set is described as follows: Vivid CYP screening kit, recombinant CYP3A4. In kind it is biochemical. Also on record: purchased Thermo Fisher Scientific; host or cells: insect microsomal fractions. The settings on record: recombinant enzyme, 15 min incubation, absolute IC50; read-out: CYP3A4 inhibition IC50. On the procedure: CYP inhibitory assay was performed as described previously. Experiments were performed with commercial Vivid CYP screening kits containing insect microsomal fractions enriched with a specific human CYP isoform, human CYP reductase, and in some cases, human cytochrome b5. The potential inhibitory activity of ensartinib toward CYP1A2, CYP2B6, CYP2C8, CYP2C9, CYP2C19, CYP2D6, CYP3A4, and CYP3A5 (i.e., all CYP isoforms that drug regulatory authorities recommend for testing of inhibition by new molecular entities) was then examined. Experiments were performed using a kinetic mode in black 96-well plates according to the manufacturer´s instructions. Briefly, 5-point serial dilutions of ensartinib or the model inhibitor recommended by the manufacturer in buffer were transferred into the wells, then a master mix consisting of a CYP isoenzyme with an NADPH regeneration system in buffer was added. After a 10 min pre-incubation, the reaction was initiated by adding a mixture of NADP^+ and the appropriate Vivid substrate, after which fluorescence was measured at 1 min intervals for 60 min using an Infinite M200 Pro microplate reader (Tecan, Männedorf, Switzerland). The enzyme concentration and incubation interval used for data evaluation (15 min) placed the systems within the linear regions of the appropriate reaction velocity curves. […]
CYP3A4, sequence (P08684 2-503 limits assumed): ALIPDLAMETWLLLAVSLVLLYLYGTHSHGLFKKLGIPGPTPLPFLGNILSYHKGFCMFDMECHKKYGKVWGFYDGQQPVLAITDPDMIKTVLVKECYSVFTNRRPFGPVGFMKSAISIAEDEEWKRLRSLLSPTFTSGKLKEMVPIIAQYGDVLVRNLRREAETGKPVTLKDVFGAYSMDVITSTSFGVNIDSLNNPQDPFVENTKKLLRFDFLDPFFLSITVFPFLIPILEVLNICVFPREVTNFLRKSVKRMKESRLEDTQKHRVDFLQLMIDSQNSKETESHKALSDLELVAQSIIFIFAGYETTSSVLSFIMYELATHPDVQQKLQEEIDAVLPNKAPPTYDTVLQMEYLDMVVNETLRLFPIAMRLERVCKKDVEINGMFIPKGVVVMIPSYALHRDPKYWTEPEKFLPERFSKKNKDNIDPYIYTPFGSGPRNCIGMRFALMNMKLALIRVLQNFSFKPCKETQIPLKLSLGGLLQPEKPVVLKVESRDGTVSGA

T1 sequence (P08183 whole entry): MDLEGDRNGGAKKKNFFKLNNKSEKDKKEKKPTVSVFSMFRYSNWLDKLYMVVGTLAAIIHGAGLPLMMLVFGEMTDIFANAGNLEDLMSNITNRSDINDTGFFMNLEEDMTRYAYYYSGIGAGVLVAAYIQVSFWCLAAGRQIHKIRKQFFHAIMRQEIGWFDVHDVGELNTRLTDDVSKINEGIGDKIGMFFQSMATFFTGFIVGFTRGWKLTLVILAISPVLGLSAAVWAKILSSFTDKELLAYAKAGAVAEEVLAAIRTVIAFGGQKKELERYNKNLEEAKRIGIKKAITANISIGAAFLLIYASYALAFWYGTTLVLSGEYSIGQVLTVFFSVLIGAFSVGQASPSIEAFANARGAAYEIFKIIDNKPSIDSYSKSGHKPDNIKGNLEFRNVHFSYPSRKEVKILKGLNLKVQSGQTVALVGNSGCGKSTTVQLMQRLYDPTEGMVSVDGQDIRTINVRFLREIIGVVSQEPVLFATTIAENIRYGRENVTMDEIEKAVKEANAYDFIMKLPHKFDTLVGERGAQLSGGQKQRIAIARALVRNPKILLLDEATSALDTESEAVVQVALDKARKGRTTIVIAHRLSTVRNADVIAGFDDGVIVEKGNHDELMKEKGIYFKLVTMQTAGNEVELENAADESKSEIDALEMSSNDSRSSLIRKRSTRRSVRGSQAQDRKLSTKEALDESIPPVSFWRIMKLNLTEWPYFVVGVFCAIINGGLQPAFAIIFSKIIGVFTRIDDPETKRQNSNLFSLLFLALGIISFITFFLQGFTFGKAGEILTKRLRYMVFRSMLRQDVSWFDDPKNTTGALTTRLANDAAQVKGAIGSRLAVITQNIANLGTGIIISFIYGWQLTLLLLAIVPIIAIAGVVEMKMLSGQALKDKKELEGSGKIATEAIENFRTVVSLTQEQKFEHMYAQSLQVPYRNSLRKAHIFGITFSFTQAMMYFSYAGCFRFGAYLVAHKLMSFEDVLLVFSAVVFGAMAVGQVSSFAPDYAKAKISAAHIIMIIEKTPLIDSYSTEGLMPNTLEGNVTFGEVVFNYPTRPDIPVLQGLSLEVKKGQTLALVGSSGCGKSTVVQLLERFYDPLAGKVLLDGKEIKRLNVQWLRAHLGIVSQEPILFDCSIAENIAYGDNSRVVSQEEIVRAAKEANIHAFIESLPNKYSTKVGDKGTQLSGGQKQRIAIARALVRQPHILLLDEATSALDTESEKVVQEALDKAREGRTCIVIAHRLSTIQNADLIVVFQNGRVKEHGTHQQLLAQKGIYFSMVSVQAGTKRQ

Broadly, the IC50 is the point on the concentration scale where inhibition reaches its midpoint. Consider `C[C@@H]1CN(C(=O)c2ccc(NC(=O)c3cc(O[C@H](C)c4c(Cl)ccc(F)c4Cl)c(N)nn3)cc2)C[C@H](C)N1` [ensartinib, Ensartinib], for which the IC50 on ABCB1 [1] was 4.75 µM; in the data set with A431-ABCC1 cells it was 1860 nM; at CYP3A4 it was 1120 nM. In addition, the “effect on baseline vanadate-sensitive ATPase activity of ABCB1” value in the data set with ABCB1 [2] (activation experiment) is “significantly increased”. The “effect on verapamil-stimulated ATPase activity of ABCB1” value in the data set on ABCB1 [2] (inhibition experiment) is given as “significantly decreased”. The “combination effect (Chou-Talalay combination index)” value in the data set on HL60-ABCB1 cells (10 µM ensartinib with daunorubicin) is “synergistic (synergistic (CI < 0.9))”. For the same compound, the “RR (reversal ratio)” value in the data set on HL60-ABCB1 cells (daunorubicin, IC50 single drug / IC50 combined with 10 µM ensartinib) was determined as 22.1. Further, in data set [3], the IC50 at 48 h worked out at 29.6 µM.
